Experimental data from ChEMBL document CHEMBL5352446, “Synthesis and biological evaluation of a novel c-Myc inhibitor against colorectal cancer via blocking c-Myc/Max heterodimerization and disturbing its DNA binding” (Eur J Med Chem, 2022).
Active and inactive are the calls of the source. No cut-off for these calls is given here.

Columns and labels:
HCT-15 = test: Antiproliferative activity against human HCT-15 cells incubated for 72 hrs by MTT assay; type: functional, cell-based; details: HCT-15, 72 h
HT-29 [1] = test: Inhibition of colony formation in human HT-29 cells measured after 14 days by crystal violet staining based assay; type: functional, cell-based; details: dose 0.25-2 µM, time 14.0 day
HCT-8 = test: Antiproliferative activity against human HCT-8 cells incubated for 72 hrs by MTT assay; type: functional, cell-based; details: HCT-8, 72 h
HCT-116 [2] = test: Downregulation of c-Myc expression in human HCT-116 cells at 10 uM incubated for 24 hrs by Western blot analysis; type: functional, cell-based
HT-29 [3] = test: Induction of apoptosis in human HT-29 cells assessed as viable cells at 0.625 uM incubated for 24 hrs by FITC Annexin-V and PI staining based flow cytometry analysis (reference value: 96.94%); type: functional; details: read-out: Activity
HT-29 [4] = test: Induction of apoptosis in human HT-29 cells assessed as late apoptotic cells at 5 uM incubated for 24 hrs by FITC Annexin-V and PI staining based flow cytometry analysis (reference value: 0.78%); type: functional
HT-29 [5] = test: Induction of apoptosis in human HT-29 cells assessed as early apoptotic cells at 5 uM incubated for 24 hrs by FITC Annexin-V and PI staining based flow cytometry analysis (reference value: 2.15%); type: functional
HT-29 [6] = test: Induction of apoptosis in human HT-29 cells assessed as early apoptotic cells at 2.5 uM incubated for 24 hrs by FITC Annexin-V and PI staining based flow cytometry analysis (reference value: 2.15%); type: functional
HT-29 [7] = test: Antitumor activity against human HT-29 cells xenografted in ip dosed BALB/c mouse assessed as tumor growth inhibition administered daily for 3 weeks by caliper method; type: functional, organism-based; details: dose 40-80 mg/kg
HT-29 [8] = test: Induction of apoptosis in human HT-29 cells assessed as necrotic cells at 0.625 uM incubated for 24 hrs by FITC Annexin-V and PI staining based flow cytometry analysis (reference value: 0.13%); type: functional
HCT-116 [9] = test: cells; details: Homo sapiens, HCT-116, 72 h
Description: Antiproliferative activity against human HCT-116 cells incubated for 72 hrs by MTT assay

HT-29 [10] = test: Induction of cell cycle arrest in human HT-29 cells assessed as accumulation of cells at S phase at 5 uM incubated for 24 hrs by propidium iodide staining based flow cytometry analysis (reference value: 12.01 %); type: functional
HT-29 [11] = test: Induction of apoptosis in human HT-29 cells assessed as late apoptotic cells at 10 uM incubated for 24 hrs by FITC Annexin-V and PI staining based flow cytometry analysis (reference value: 0.78%); type: functional
HT-29 [12] = test: Induction of cell cycle arrest in human HT-29 cells assessed as accumulation of cells at G2 phase at 1.25 uM incubated for 24 hrs by propidium iodide staining based flow cytometry analysis (reference value: 16.33 %); type: functional
HCT-116 [13] = test: Inhibition of colony formation in human HCT-116 cells measured after 14 days by crystal violet staining based assay; type: functional, cell-based; details: dose 0.25-2 µM, time 14.0 day
HT-29 [14] = test: Inhibition of cell migration in human HT-29 cells incubated for 48 hrs by wound healing analysis; type: functional, cell-based
HT-29 [15] = test: Induction of apoptosis in human HT-29 cells assessed as upregulation of cleaved PARP expression incubated for 24 hrs by Western blot analysis; type: functional, cell-based; details: dose 2.5-10 µM
HT-29 [16] = test: Induction of apoptosis in human HT-29 cells assessed as necrotic cells at 2.5 uM incubated for 24 hrs by FITC Annexin-V and PI staining based flow cytometry analysis (reference value: 0.13%); type: functional
HT-29 [17] = test: Induction of apoptosis in human HT-29 cells assessed as viable cells at 5 uM incubated for 24 hrs by FITC Annexin-V and PI staining based flow cytometry analysis (reference value: 96.94%); type: functional; details: read-out: Activity
HT-29 [18] = test: Induction of apoptosis in human HT-29 cells assessed as viable cells at 10 uM incubated for 24 hrs by FITC Annexin-V and PI staining based flow cytometry analysis (reference value: 96.94%); type: functional; details: read-out: Activity
HT-29 [19] = test: Induction of apoptosis in human HT-29 cells assessed as early apoptotic cells at 10 uM incubated for 24 hrs by FITC Annexin-V and PI staining based flow cytometry analysis (reference value: 2.15%); type: functional
HT-29 [20] = test: Downregulation of c-Myc expression in human […] cells incubated for 24 hrs by Western blot analysis; type: functional, cell-based; details: dose 2.5-10 µM
HT-29 [21] = test: Induction of cell cycle arrest in human HT-29 cells assessed as accumulation of cells at G1 phase at 0.625 uM incubated for 24 hrs by propidium iodide staining based flow cytometry analysis (reference value: 65.37 %); type: functional
HT-29 [22] = test: Induction of apoptosis in human HT-29 cells assessed as upregulation of cleaved caspase 9 expression incubated for 24 hrs by Western blot analysis; type: functional, cell-based; details: dose 2.5-10 µM
HT-29 [23] = test: Induction of apoptosis in human HT-29 cells assessed as late apoptotic cells at 1.25 uM incubated for 24 hrs by FITC Annexin-V and PI staining based flow cytometry analysis (reference value: 0.78%); type: functional
[24] = Toxicity in BALB/c mouse xenografted with human HT-29 cells assessed as kidney damage at 40 to 80 mg/kg, ip measured after 21 days by H and E staining based assay; type: organism-based; details: in vivo, 504 h, dose 40-80 mg/kg, time 21 day
HT-29 [25] = test: Induction of apoptosis in human HT-29 cells assessed as downregulation of Bcl-2 expression incubated for 24 hrs by Western blot analysis; type: functional, cell-based; details: dose 2.5-10 µM
HT-29 [26] = test: Induction of cell cycle arrest in human HT-29 cells assessed as accumulation of cells at S phase at 1.25 uM incubated for 24 hrs by propidium iodide staining based flow cytometry analysis (reference value: 12.01 %); type: functional
HT-29 [27] = test: Induction of apoptosis in human HT-29 cells assessed as viable cells at 2.5 uM incubated for 24 hrs by FITC Annexin-V and PI staining based flow cytometry analysis (reference value: 96.94%); type: functional; details: read-out: Activity
HT-29 [28] = test: Potency index, ratio of 5-Fu IC50 to test compound IC50 for antiproliferative activity against human HT-29 cells; type: functional
Homo sapiens = organism: Homo sapiens; test: Inhibition of human Myc (353 to 439 residues)/Max(S) (151 residues) expressed in Escherichia coli BL21(DE3) binding to biotinylated double-stranded DNA oligonucleotide 5'-CACCCGGTCACTGGCCTACAC-3' (unknown origin) preincubated for 90 mins followed by oligonucleotide addition for 25 mins by EMSA; details: time 115.0 min
HCT-116 [29] = test: Inhibition of cell migration in human HCT-116 cells incubated for 48 hrs by wound healing analysis; type: functional, cell-based
HT-29 [30] = test: Induction of apoptosis in human HT-29 cells assessed as necrotic cells at 1.25 uM incubated for 24 hrs by FITC Annexin-V and PI staining based flow cytometry analysis (reference value: 0.13%); type: functional
HT-29 [31] = test: Induction of cell cycle arrest in human HT-29 cells assessed as accumulation of cells at S phase at 0.625 uM incubated for 24 hrs by propidium iodide staining based flow cytometry analysis (reference value: 12.01 %); type: functional
[32] = Toxicity in BALB/c mouse xenografted with human HT-29 cells assessed as body weight loss at 40 to 80 mg/kg, ip measured after 21 days; type: organism-based; details: in vivo, 504 h, dose 40-80 mg/kg, time 21 day
HT-29 [33] = test: cells; details: Homo sapiens, HT-29, 72 h
Description: Antiproliferative activity against human HT-29 cells incubated for 72 hrs by MTT assay

COc1cc(Oc2ccc(Nc3ccc(CCCO)cc3)cc2)cc(OC)c1CNCCc1ccc(C(F)(F)F)cc1
IC50 (HCT-15): 2340 nM
inhibition (HT-29 [1]): Dose-Dependent Effect
IC50 (HCT-8): 3120 nM
Activity (HCT-116 [2]): Active
viability at 0.625 µM (HT-29 [3]): 89.5%
Activity (HT-29 [4]): 7.67%
Activity (HT-29 [5]): 22.05%
Activity (HT-29 [6]): 19.39%
Activity (HT-29 [7]): Dose-Dependent Effect
Activity (HT-29 [8]): 1.44%
IC50 (HCT-116 [9]): 640 nM
Activity (HT-29 [10]): 12.16%
Activity (HT-29 [11]): 13.52%
Activity (HT-29 [12]): 11.24%
inhibition (HCT-116 [13]): Dose-Dependent Effect
inhibition (HT-29 [14]): Active
Activity (HT-29 [15]): Dose-Dependent Effect
Activity (HT-29 [16]): 3.95%
viability at 5 µM (HT-29 [17]): 69%
viability at 10 µM (HT-29 [18]): 55.6%
Activity (HT-29 [19]): 29.06%
Activity (HT-29 [20]): Dose-Dependent Effect
Activity (HT-29 [21]): 71.78%
Activity (HT-29 [22]): Dose-Dependent Effect
Activity (HT-29 [23]): 4.55%
Activity [24]: Non-Toxic
Activity (HT-29 [25]): Dose-Dependent Effect
Activity (HT-29 [26]): 13.16%
viability at 2.5 µM (HT-29 [27]): 69.6%
Ratio IC50 (HT-29 [28]): 32
inhibition (Homo sapiens): Dose-Dependent Effect
inhibition (HCT-116 [29]): Active
Activity (HT-29 [30]): 1.72%
Activity (HT-29 [31]): 14.41%
Activity [32]: Non-Toxic
IC50 (HT-29 [33]): 290 nM
